In PubChem BioAssay (NCI):
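48-hour exposure; five concentrations; linearly interpolated endpoints. At the TGI there is no net growth.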

Experiments:
Assay in all cases: inhibition of tumour cell growth, NCI panel, 48 h
[1] = system: PC-3 prostate
[2] = system: OVCAR-5 ovarian
[3] = system: T-47D breast
[4] = system: SF-295 CNS
[5] = system: MDA-MB-231 breast
[6] = system: ACHN renal
[7] = system: OVCAR-3 ovarian
[8] = system: DU-145 prostate
[9] = system: CCRF-CEM leukemia
[10] = system: HT29 colon
[11] = system: HCT-116 colon
[12] = system: CAKI-1 renal
[13] = system: HCT-15 colon
[14] = system: HOP-92 NSCLC
[15] = system: U251 CNS
[16] = system: 786-0 renal
[17] = system: K-562 leukemia
[18] = system: NCI-H226 lung
[19] = system: OVCAR-4 ovarian
[20] = system: SF-268 CNS
[21] = system: MALME-3M melanoma
[22] = system: OVCAR-8 ovarian
[23] = system: NCI-H460 lung
[24] = system: SNB-75 CNS
[25] = system: EKVX NSCLC
[26] = system: SN12C renal
[27] = system: A549 NSCLC
[28] = system: SK-MEL-28 melanoma
[29] = system: RXF 393 renal
[30] = system: RPMI-8226 leukemia
[31] = system: UACC-62 melanoma
[32] = system: NCI/ADR-RES ovarian
[33] = system: HL-60(TB) leukemia
[34] = system: KM12 colon
[35] = system: HOP-62 NSCLC
[36] = system: SR leukemia
[37] = system: TK-10 renal
[38] = system: LOX IMVI melanoma
[39] = system: MDA-MB-435
[40] = system: UACC-257 melanoma
[41] = system: SK-OV-3 ovarian
[42] = system: M14 melanoma
[43] = system: HS 578T breast
[44] = system: BT-549 breast
[45] = system: MOLT-4 leukemia
[46] = system: COLO 205 colon
[47] = system: MDA-N
[48] = system: MCF7 breast
[49] = system: A498 renal
[50] = system: SK-MEL-5 melanoma
[51] = system: HCC-2998 colon
[52] = system: SNB-19 CNS
[53] = system: SF-539 CNS
[54] = system: IGROV1 ovarian
[55] = system: SK-MEL-2 melanoma
[56] = system: SW-620 colon
[57] = system: UO-31 renal
[58] = system: NCI-H23 lung
[59] = system: NCI-H522 lung

For `C/C(=N\O)c1cccc(Nc2nc3ccccc3c3occc23)c1`, the TGI [1] was 25.8 µM, the TGI [2] was 30.7 µM and the TGI [3] was 44.7 µM. The TGI [4] was 22.6 µM, the TGI [5] was 26.4 µM and the TGI [6] was 22.8 µM. It also gave a TGI [7] of 31.8 µM, a TGI [8] of 27.8 µM and a TGI [9] of 31 µM. The TGI [10] was 15.6 µM, the TGI [11] was 25.8 µM and the TGI [12] was 34.2 µM. For the same molecule, the TGI [13] was 22.4 µM, the TGI [14] was 20.2 µM and the TGI [15] was greater than 100 µM. For the same molecule, the TGI [16] was 26.7 µM, the TGI [17] was 70.5 µM and the TGI [18] was 16.5 µM. It also gave a TGI [19] of 30.2 µM, a TGI [20] of 27.6 µM and a TGI [21] of 28.9 µM. It also gave a TGI [22] of 32.8 µM, a TGI [23] of 21 µM and a TGI [24] of 32.3 µM. The TGI [25] was 25.6 µM, the TGI [26] was 33.6 µM and the TGI [27] was 32.5 µM. The TGI [28] was 29.2 µM, the TGI [29] was 21 µM and the TGI [30] was 31.8 µM. It also gave a TGI [31] of 5.22 µM, a TGI [32] of 29.7 µM and a TGI [33] of 61.1 µM. It also gave a TGI [34] of 27.3 µM, a TGI [35] of 32.8 µM and a TGI [36] of 35.1 µM. For the same molecule, the TGI [37] was 27.6 µM, the TGI [38] was 33.2 µM and the TGI [39] was 24 µM. The TGI [40] was 2.59 µM, the TGI [41] was 28.7 µM and the TGI [42] was 29.7 µM. It also gave a TGI [43] of 32.8 µM, a TGI [44] of 26.9 µM and a TGI [45] of 32.9 µM. For the same molecule, the TGI [46] was 26.4 µM, the TGI [47] was 27.9 µM and the TGI [48] was 37.1 µM. The TGI [49] was 29.2 µM, the TGI [50] was 27 µM and the TGI [51] was 28.9 µM. The TGI [52] was 39.8 µM and the TGI [53] was 29.6 µM.

`Cc1ccc(Nc2nc(=O)[nH]c(=O)[nH]2)cc1N=[N+]=[N-]` showed a TGI [2] greater than 100 µM, a TGI [3] greater than 100 µM and a TGI [4] greater than 100 µM. For the same molecule, the TGI [5] was greater than 100 µM, the TGI [54] was greater than 100 µM and the TGI [6] was greater than 100 µM. The TGI [7] was greater than 100 µM, the TGI [8] was greater than 100 µM and the TGI [55] was greater than 100 µM. For the same molecule, the TGI [9] was greater than 100 µM, the TGI [10] was greater than 100 µM and the TGI [11] was greater than 100 µM. The TGI [12] was greater than 100 µM, the TGI [13] was greater than 100 µM and the TGI [14] was greater than 100 µM. It also gave a TGI [56] greater than 100 µM, a TGI [57] greater than 100 µM and a TGI [16] greater than 100 µM. The TGI [58] was greater than 100 µM, the TGI [17] was greater than 100 µM and the TGI [18] was greater than 100 µM. The TGI [19] was greater than 100 µM, the TGI [20] was greater than 100 µM and the TGI [21] was greater than 100 µM. It also gave a TGI [22] greater than 100 µM, a TGI [24] greater than 100 µM and a TGI [25] greater than 100 µM. For the same molecule, the TGI [26] was greater than 100 µM, the TGI [27] was greater than 100 µM and the TGI [29] was greater than 100 µM. For the same molecule, the TGI [30] was greater than 100 µM, the TGI [31] was greater than 100 µM and the TGI [32] was greater than 100 µM. It also gave a TGI [33] greater than 100 µM, a TGI [34] greater than 100 µM and a TGI [35] greater than 100 µM. For the same molecule, the TGI [36] was greater than 100 µM, the TGI [37] was greater than 100 µM and the TGI [38] was greater than 100 µM. It also gave a TGI [39] greater than 100 µM, a TGI [40] greater than 100 µM and a TGI [41] greater than 100 µM. The TGI [42] was greater than 100 µM, the TGI [43] was greater than 100 µM and the TGI [44] was greater than 100 µM. It also gave a TGI [59] greater than 100 µM, a TGI [45] greater than 100 µM and a TGI [46] greater than 100 µM. It also gave a TGI [47] greater than 100 µM, a TGI [48] greater than 100 µM and a TGI [49] greater than 100 µM. It also gave a TGI [50] greater than 100 µM, a TGI [51] greater than 100 µM and a TGI [52] greater than 100 µM. For the same molecule, the TGI [53] was greater than 100 µM.

For `Cc1ccc(/C=N/NC2=NCCN2)s1`, the TGI [1] was greater than 100 µM, the TGI [2] was greater than 100 µM and the TGI [3] was greater than 100 µM. For the same molecule, the TGI [4] was greater than 100 µM, the TGI [5] was greater than 100 µM and the TGI [54] was greater than 100 µM. The TGI [6] was greater than 100 µM, the TGI [7] was greater than 100 µM and the TGI [8] was greater than 100 µM. The TGI [55] was greater than 100 µM, the TGI [10] was greater than 100 µM and the TGI [11] was greater than 100 µM. For the same molecule, the TGI [12] was greater than 100 µM, the TGI [13] was greater than 100 µM and the TGI [14] was greater than 100 µM. For the same molecule, the TGI [15] was greater than 100 µM, the TGI [56] was greater than 100 µM and the TGI [57] was greater than 100 µM. It also gave a TGI [16] greater than 100 µM, a TGI [58] greater than 100 µM and a TGI [17] greater than 100 µM. It also gave a TGI [18] greater than 100 µM, a TGI [19] greater than 100 µM and a TGI [20] greater than 100 µM. For the same molecule, the TGI [21] was greater than 100 µM, the TGI [22] was greater than 100 µM and the TGI [24] was greater than 100 µM. For the same molecule, the TGI [25] was greater than 100 µM, the TGI [26] was greater than 100 µM and the TGI [27] was greater than 100 µM. For the same molecule, the TGI [28] was greater than 100 µM, the TGI [29] was greater than 100 µM and the TGI [30] was greater than 100 µM. For the same molecule, the TGI [31] was greater than 100 µM, the TGI [32] was greater than 100 µM and the TGI [33] was greater than 100 µM. For the same molecule, the TGI [34] was greater than 100 µM, the TGI [35] was greater than 100 µM and the TGI [37] was greater than 100 µM. The TGI [38] was greater than 100 µM, the TGI [39] was greater than 100 µM and the TGI [40] was greater than 100 µM. It also gave a TGI [41] greater than 100 µM, a TGI [42] greater than 100 µM and a TGI [43] greater than 100 µM. For the same molecule, the TGI [44] was greater than 100 µM, the TGI [59] was greater than 100 µM and the TGI [45] was greater than 100 µM. For the same molecule, the TGI [46] was greater than 100 µM, the TGI [47] was greater than 100 µM and the TGI [48] was greater than 100 µM. It also gave a TGI [50] greater than 100 µM, a TGI [51] greater than 100 µM and a TGI [52] greater than 100 µM. It also gave a TGI [53] greater than 100 µM.

With `CC(=O)O[C@H]1CC[C@@]2(C)C(=CC[C@@H]3[C@@H]2CC[C@]2(C)c4c(cc(C#N)c(=N)n4C(C)=O)C[C@@H]32)C1` the TGI [1] was 54.6 µM, the TGI [2] was 74.7 µM and the TGI [3] was 46.9 µM. The TGI [4] was 29.6 µM, the TGI [5] was 77.9 µM and the TGI [54] was 53.3 µM. For the same molecule, the TGI [6] was 47.8 µM, the TGI [7] was 34.4 µM and the TGI [8] was 79.3 µM. It also gave a TGI [9] of 23.2 µM, a TGI [10] of 43.5 µM and a TGI [11] of 28.5 µM. It also gave a TGI [12] of 95.8 µM, a TGI [13] of 29.4 µM and a TGI [14] of 59.8 µM. It also gave a TGI [15] greater than 100 µM, a TGI [56] of 47.5 µM and a TGI [57] of 52.8 µM. For the same molecule, the TGI [16] was 58.3 µM, the TGI [58] was 32.1 µM and the TGI [17] was greater than 100 µM. For the same molecule, the TGI [18] was 72.8 µM, the TGI [19] was 39.4 µM and the TGI [20] was 62.7 µM. For the same molecule, the TGI [21] was 31.8 µM, the TGI [22] was 37.6 µM and the TGI [23] was 30.3 µM. The TGI [24] was 44.9 µM, the TGI [25] was 43.2 µM and the TGI [26] was 44.8 µM. It also gave a TGI [27] of 64.8 µM, a TGI [28] of 37.3 µM and a TGI [29] of 66.5 µM. For the same molecule, the TGI [31] was 29.7 µM, the TGI [32] was 39.6 µM and the TGI [33] was 36 µM. For the same molecule, the TGI [34] was 32.8 µM, the TGI [35] was 49.4 µM and the TGI [36] was 61.2 µM. It also gave a TGI [37] of 66.8 µM, a TGI [38] of 30.8 µM and a TGI [39] of 38.5 µM. It also gave a TGI [40] of 33.9 µM, a TGI [41] of 34.5 µM and a TGI [42] of 32.5 µM. It also gave a TGI [43] of 59.6 µM, a TGI [44] of 34.8 µM and a TGI [59] of 35.9 µM. The TGI [45] was 35.8 µM, the TGI [46] was 35.7 µM and the TGI [47] was 52.9 µM. The TGI [48] was 47.2 µM, the TGI [49] was 88.7 µM and the TGI [50] was 29.7 µM. It also gave a TGI [51] of 41.9 µM and a TGI [52] of 89 µM.
